Measurements from patent US12350250B2, “Aggrelytes for treating ocular conditions” (The Regents of the University of Colorado, a Body Corporate, priority 2022, dated 2025).

Columns and labels:
[1] = test system: water-insoluble (WI) proteins from human lenses; assay: Solubilization of water-insoluble (WI) proteins from human lenses (BCA protein assay of supernatant); type: biochemical; settings: 500 μM; for protein in the supernatant / solubilized protein, % of the initial WI protein / solubilized protein, % of the initial protein: ten human lenses (65 to 75 years)
Protocol: Human lenses (donor age: 55-75 years) were obtained from Saving Sight, Kansas City, MO, and Lions Eye Institute for Transplant & Research, Tampa, FL. The lenses were harvested within 36 hours postmortem, stored with (when used for culturing) or without minimum essential medium (MEM), and shipped to the inventors' laboratory on ice or frozen on dry ice. Lenses shipped on dry ice (used in the presently described and other solubility studies) were stored at −80° C. until use. Each frozen lens was thawed on ice and homogenized with 1.5 mL of PBS in a hand-held glass homogenizer. The homogenate was centrifuged at 20,000×g for 20 min at 4° C. The supernatant was discarded, and the pellet was suspended in 1 mL of homogenization buffer and centrifuged at 20,000×g for 20 min at 4° C. The resulting pellet was lyophilized and designated the water-insoluble (WI) fraction.
In the present example, the ability of aggrelytes to solubilize WI proteins from a human lens was investigated. Stock solutions (10 mM) of Aggrelyte-2 and Aggrelyte-2C were prepared in 50 mM phosphate buffer. The WI fraction (2 mg) was incubated in 50 mM sodium phosphate buffer (0.4 mL), pH 7.4, at 37° C. with aggrelyte at a final concentration of 0-2000 μM. The mixture was incubated at 37° C. with shaking for 24 or 48 hours after adding 0.002% sodium azide to prevent bacterial growth. After incubation, the samples were centrifuged at 20,000×g for 20 min at 4° C., and the supernatants were collected. Protein in the supernatant was measured using a BCA Protein Assay Kit from Thermo Scientific (Waltham, MA) using BSA as the standard.
WI fractions from ten aged human lenses (65 to 75 years) were prepared as in Example 3. The WI fractions (2 mg) were incubated in 50 mM sodium phosphate buffer (0.4 mL), pH 7.4, at 37° C. with 500 μM aggrelyte for 24 or 48 hours. Each sample was separately processed three times and analyzed (mean±S.D.).

[2] = test system: human lenses; assay: Water-soluble (WS) protein content of aggrelyte-treated human lenses; settings: 1 mM, 72 h
Protocol: Water soluble (WS) proteins were obtained from both mouse and human lenses. For mouse lenses, WS protein was obtained by homogenizing each mouse lens in 0.2 mL of PBS, followed by centrifugation at 20,000×g for 20 min at 4° C. […] The remaining nucleus was homogenized in 1 mL phosphate buffer. Both cortical and nuclear protein extracts were centrifuged at 20,000×g for 20 min at 4° C. to obtain the soluble protein in the supernatant. In another set of experiments, human lenses (42-64 years), following incubation with aggrelytes as described in the foregoing examples, were each homogenized with 1.5 mL 50 mM phosphate buffer, pH 7.4. The homogenate was centrifuged at 20,000×g for 20 min to obtain a supernatant. Protein in the supernatant was evaluated to determine the effect of aggrelyte treatment on the soluble protein content in the lens.

SMILES | protein in the supernatant ([1]; 24-hour incubation) | solubilized protein, % of the initial WI protein ([1]; 24-hour incubation) | solubilizing WI proteins, fold better than Control or Aggrelyte-2C ([1]; 24 and 48 hours, combined ten lenses) | protein in the supernatant ([1]; 48-hour incubation) | solubilized protein, % of the initial protein ([1]; 48-hour incubation) | WS content, % higher than in the untreated controls (contralateral lenses) [2] | protein solubility, fold less than that of Aggrelyte-2 ([1]; 48 hours, human lens)
COC(=O)[C@H](CSC(C)=O)NC(C)=O [Aggrelyte-2, N,S-diacetyl-L-cysteine methyl ester] | 0.97 to 1.30 µg/µL | 20-26% | ~1.4 fold | 0.96 to 1.48 µg/µL | 19-30% | 13.2% | 
COC(=O)[C@H](CS)NC(C)=O [Aggrelyte-2C, N-acetyl-L-cysteine methyl ester] | 0.72 to 0.97 µg/µL | 14-19% |  | 0.68 to 1.12 µg/µL | 14-22% | 4.6% | ~1.4 fold
